Reference: patent US9243036B2, “Anti-microbial activity of synthetic peptides” (THE UNITED STATES OF AMERICA, as represented by the …, priority 2012, dated 2016)
Residues, ends and D or L forms follow the SMILES beside them.

Key:
Format in all cases: cell-based
[1] = tested on: chicken red blood cells (ch-RBCs)
Description: The ability of EC5 to induce hemolysis of chicken red blood cells (ch-RBCs) was assessed as previously described (Pathak, S. and Chauhan, V. S. (2011) Antimicrob. Agents Chemother. 55, 2178-2188). Red blood cells were harvested and washed with phosphate-buffered saline (PBS). 1% (vol/vol) suspension was made with PBS. 100 μl and 50 μl of this RBC suspension were transferred to 96-well microtiter plates. Two-fold serial dilutions of the peptide samples were prepared and added to the RBCs. The reaction mixture was incubated at 37° C. for 24 h in microtiter plates. Results were visually determined.
The hemolytic activity of EC5 against chRBCs was determined as a measure of peptide toxicity toward higher eukaryotic cells (Yount, N. Y., et al., (2011) PLoS. One. 6, e26727; Tachi, T., et al., Biochemistry 41, 10723-10731). MHC is the maximal peptide concentration that produces no hemolysis after 24 h of incubation at 37° C.

P. aeruginosa [2] = assay: Cytoplasmic membrane depolarization assay (diSC3-5) with parallel CFU plating; conditions: EC5 at 8 μg/ml and 16 μg/ml
Description: (§1) Membrane depolarization activity (Δψ) of the peptide was determined with intact E. coli and P. aeruginosa cells and the membrane potential-sensitive fluorescent dye, 3,3′-dipropylthiadicarbocyanine Iodide (diSC (3)5) (Invitrogen, Oregon), according to described methods (Sims, P. J., et al (1974) Biochemistry 13, 3315-3330). Briefly, bacterial cells of mid-logarithmic phase were harvested by centrifugation and washed twice with HEPES buffer (5 mM HEPES, 5 mM glucose, pH 7.6). The cells were suspended in the same buffer to an OD of 0.05. The cell suspension was incubated with […] diSC (3)5 until maximal uptake of the dye. 100 mM KCl was added to equilibrate the cytoplasmic and external potassium ion concentration of peptide, and fluorescence was monitored at an excitation wavelength of 622 nm and an emission wavelength of 670 nm. Polymyxin B was used as a positive control and S. aureus cells were used as negative control. Simultaneously the cells were plated on NA plates and incubated at 37° C. overnight to assess the number of CFU.
(§2) Cytoplasmic depolarization assay(Δψ) was performed using the membrane potential sensitive dye 3,3′-dipropylthiadicarbocyanine iodide (diSC3-5) (Zang, L. et al., (2001) J. Biol. Chem. 276, 35714-35722). This dye can cross the outer membrane of the bacterial cell and become concentrated in the cytoplasmic membrane and thereby it self-quenches its own fluorescence. Upon addition of a membrane-permeabilizing agent the dye is released with consequent increase in the fluorescence. EC5 at 8 μg/ml and 16 μg/ml caused rapid depolarization of the cytoplasmic membrane in both E. coli and P. aeruginosa resulting in the release of diSC3-5 within 5 min (FIG. 9C). […] However Polymyxin B even at its MIC of 0.5 μg/ml caused slow release of diSC3-5 when compared to EC5.

E. coli [3] = assay: as above; conditions: EC5 at 8 μg/ml and 16 μg/ml
Description: as §1, §2

E. coli [4] = assay: Outer membrane permeabilization (NPN uptake) assay
Description: Membrane-permeabilizing activity of the peptide was determined using the fluorescent dye N-phenyl-1-napthylamine (NPN) assay, as described earlier (Loh et al. (1984) Antimicrob. Agents Chemother. 26, 546-551), with intact cells of E. coli and P. aeruginosa. The increase in fluorescence due to partitioning of NPN uptake into outer membrane (OM) was measured by addition of increasing concentrations of peptide. Polymyxin B (PMB) was taken as a positive control due to its outer membrane permeabilizing properties. All experiments were performed three times. S. aureus was used as a negative control.
Outer membrane permeabilizing activity of EC5 against E. coli and P. aeruginosa was determined using the fluorescent dye N-phenyl-1-napthylamine (NPN) assay. The outer membrane of a bacterial cell is impermeable to NPN under normal conditions. However permeabilization of outer membrane by anti-microbial peptides allows the uptake of NPN thereby leading to increase in fluorescence in the cell. […] The outer membrane permeabilizing activity of EC5 was compared to polymyxin B, a well studied membrane permeabilising agent (Daugelavicius, R., et al., (2000) Antimicrob. Agents Chemother. 44, 2969-2978).

S. epidermidis = assay: Anti-bacterial activity in spiked plasma; conditions: even at 50 μg/ml
Description: (§3) The anti-bacterial activity of the peptide in the presence of homologous plasma and platelets were assessed. Platelet Concentrates (PCs) in bags were obtained and stored at room temperature as described earlier (Mohan, K. V. et al., (2010) Transfusion 50, 166-173). Plasma was isolated from the PC bag by collecting 25 ml of PCs and subjecting the sample to a low speed centrifugation step to separate PLT-rich plasma from plasma. For assays log phase cultures of bacteria grown in Luria-Bertani (LB) broth were centrifuged at 3000×g and suspended in 1×PBS pH7.4. Bacterial titers were estimated by measuring the optical density (OD) and microscopy. Approximately 10^5 CFU/ml of each bacterial strain was spiked into 0.1 ml of plasma or platelets and incubated with peptide at concentrations ranging from 50 to 0 μg/ml. Incubation was carried out at room temperature for 2 h on a shaker. At the end of 2-h exposure period, a fixed volume of the suspension was plated on NA plates, and incubating at 37° C. for 18 to 24 h. Bactericidal activity was measured by log-reduction by viable bacteria.

P. aeruginosa [5] = assay: Anti-bacterial activity in spiked plasma; conditions: 2 h
Description: as §3

B. cereus = assay: Anti-bacterial activity in spiked plasma; conditions: even at 50 μg/ml
Description: as §3

S. aureus = assay: Anti-bacterial activity in spiked plasma; conditions: even at 50 μg/ml
Description: as §3

E. coli [6] = assay: Anti-bacterial activity in spiked plasma; conditions: 2 h
Description: as §3

K pneumoniae = assay: Anti-bacterial activity in spiked plasma; conditions: 2 h
Description: as §3

Structure (SMILES): CC[C@H](C)[C@H](NC(=O)[C@H](CCCCN)NC(=O)[C@H](CCCNC(=N)N)NC(=O)[C@H](Cc1ccccc1)NC(=O)[C@H](CC(C)C)NC(=O)[C@H](CC(C)C)NC(=O)[C@@H](N)CCCNC(=N)N)C(=O)N[C@@H](CCCNC(=N)N)C(=O)N[C@@H](CCCNC(=N)N)C(=O)N[C@@H](CC(C)C)C(=O)N[C@@H](CCCCN)C(=O)N[C@@H](CCCNC(=N)N)C(=O)O [EC5, RLLFRKIRRLKR] (H-RLLFRKIRRLKR-OH; N-terminus and C-terminus assumed)
- therapeutic index (MIC versus concentrations inducing hemolysis) [1]: favorable
- time to complete inhibition of CFU (P. aeruginosa [2]): ≤ 5 min
- time to release of diSC3-5 (depolarization of the cytoplasmic membrane) (P. aeruginosa [2]): ≤ 5 min
- time to complete inhibition of CFU (E. coli [3]): ≤ 5 min
- time to release of diSC3-5 (depolarization of the cytoplasmic membrane) (E. coli [3]): ≤ 5 min
- increase in NPN fluorescence compared with polymyxin B (E. coli [4]; at similar concentrations): higher than for polymyxin B
- NPN fluorescence (outer membrane permeabilization) (E. coli [4]; increasing peptide concentrations): dose-dependent increase in fluorescence
- reduction of S. epidermidis in plasma (S. epidermidis): failed to cause a significant reduction
- reduction of P. aeruginosa in plasma (P. aeruginosa [5]; EC5 12.5 μg/ml): ~3 log10 CFU/ml
- reduction of P. aeruginosa in plasma (P. aeruginosa [5]; EC5 25 μg/ml): around 4 log10 CFU/ml
- bactericidal activity in homologous plasma, in words (P. aeruginosa [5]; EC5 50 μg/ml): inhibited
- reduction of P. aeruginosa in plasma (P. aeruginosa [5]; EC5 50 μg/ml): around 5 log10 CFU/ml
- reduction of B. cereus in plasma (B. cereus): failed to cause a significant reduction
- reduction of S. aureus in plasma (S. aureus): failed to cause a significant reduction
- reduction of E. coli in plasma (E. coli [6]; EC5 12.5 μg/ml): 3.5 log10
- reduction of E. coli in plasma (E. coli [6]; EC5 25 μg/ml): 4.5 log10
- bactericidal activity in homologous plasma, in words (E. coli [6]; EC5 50 μg/ml): inhibited
- reduction of E. coli in plasma (E. coli [6]; EC5 50 μg/ml): around 5 log10 CFU/ml
- reduction of K pneumoniae in plasma (K pneumoniae; EC5 25 μg/ml): around 1.5 log10
- reduction of K pneumoniae in plasma (K pneumoniae; EC5 50 μg/ml): around 2.5 log10
